Results as given in patent publication US20230045421A1 (priority 2018, published 2023).
Like-named read-outs stand apart in the source and are kept apart here.

System: HBV rcDNA
Experiment: HepDE19 assay with bDNA quantitation of HBV rcDNA
Type: cell-based, hepatitis B virus
Details: read-out: DE-19bDNA EC50
Procedure, shortened: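 Compounds, top concentration 25 μM in 8-point duplicate series, were applied to Tet-free HepDE19 cultures for 7 days. Branched-DNA quantitation of HBV rcDNA against untreated wells gave EC50 and EC90 by 4-parameter fit. Viability (CC50) came from ATP luminescence on parallel plates incubated 4 days.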

[1] = HepDE19 assay, inhibition of formation of rcDNA
[2] = HepDE19 assay, inhibition of formation of relaxed circular DNA (rcDNA), bDNA quantitation

| SMILES | EC50 [1] [nM] | EC50 [2] [nM] | further results |
| --- | --- | --- | --- |
| CC(C)CN(C(=O)Nc1ccc(F)c(Cl)c1)C(C)c1cnc(-n2cncn2)c2ccccc12 (racemic) [Compound 300, 1-(1-(1-(1H-1,2,4-triazol-1-yl)isoquinolin-4-yl)ethyl)-3-(3-chloro-4-fluorophenyl)-1-isobutylurea] |  |  | EC50 (Hepatitis B virus, HepDE19, HepDE19 assay, inhibition of formation of relaxed circular DNA (rcDNA), bDNA quantitation): 20 nM |
| CC(c1c[nH]c(=O)c2ccccc12)N(CCCCO)C(=O)Nc1ccc(F)c(Cl)c1 (single isomer, unassigned) [Compound 150, 3-(3-Chloro-4-fluorophenyl)-1-(4-hydroxybutyl)-1-(1-(1-oxo-1,2-dihydroisoquinolin-4-yl)ethyl)urea] | 10 |  |  |
| CC(c1c[nH]c(=O)c2c(F)c(F)ccc12)N(CCS(N)(=O)=O)C(=O)Nc1ccc(F)c(Cl)c1 (single isomer, unassigned) [Compound 392, 2-(3-(3-Chloro-4-fluorophenyl)-1-(1-(7,8-difluoro-1-oxo-1,2-dihydroisoquinolin-4-yl)ethyl)ureido) ethane-1-sulfonamide] |  | 26 |  |
| CC(c1c[nH]c(=O)c2ccccc12)N(Cc1cscn1)C(=O)Nc1ccc(F)c(Cl)c1 (single isomer, unassigned) [Compound 312, 3-(3-Chloro-4-fluorophenyl)-1-(1-(1-oxo-1,2-dihydroisoquinolin-4-yl)ethyl)-1-(thiazol-4-ylmethyl)urea] |  | 4600 |  |
| CC(c1c[nH]c(=O)c2ccc(F)cc12)N(C)C(=O)Nc1ccc(F)c(Cl)c1 (single isomer, unassigned) [Compound 170, 3-(3-Chloro-4-fluorophenyl)-1-(1-(6-fluoro-1-oxo-1,2-dihydroisoquinolin-4-yl)ethyl)-1-methylurea] | 30 |  |  |
